Laboratory results reported in patent US9023789B2, “Amylin analogs and pharmaceutical compositions thereof” (Novo Nordisk A/S, priority 2012, dated 2015).
Numbered stars: 1 amine (or outer) side, 2 acyl side, 3 side chain; on linkers, the order of the positions; unused ones are H or OH. Bridge positions count the residues as written; N and C are the ends. Side chains are listed from the residue outwards. Peptide text beside a SMILES is read from it. * marks the point of attachment. C20 diacid = O=C(O)CCCCCCCCCCCCCCCCCCC(=O)*; γGlu = O=C(O)[C@H](CCC(=O)[*:2])N[*:1]; AEEA = NCCOCCOCC(=O)O

Tests used:
[1] = ASSAY (III) ThT fibrillation assay for physical stability; format: physicochemical
Procedure, shortened: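 Formulations with 1 μM ThT, pH adjusted as required, incubated at 37 °C with 960 rpm orbital shaking; fluorescence (ex 444/em 485 nm) read every 20 min. Fibrillation reported as mean ThT fluorescence ± SD of 4–8 replicates at time points; polypeptide concentration measured by reverse-phase HPLC before and after, post-centrifugation.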

rat calcitonin receptor = molecular target: T1, rat calcitonin receptor (Rattus norvegicus, UniProt P32214); assay: ASSAY (VIII) binding to the rat calcitonin receptor; conditions: Table 7, read-out: rCTR bind IC50
T1 construct: expressed in transfected cells; host or cells: BHK tk'ts 13 (transient, FuGENE 6), membranes
T1 sequence (P32214 25-479 isoform P32214-2 limits assumed): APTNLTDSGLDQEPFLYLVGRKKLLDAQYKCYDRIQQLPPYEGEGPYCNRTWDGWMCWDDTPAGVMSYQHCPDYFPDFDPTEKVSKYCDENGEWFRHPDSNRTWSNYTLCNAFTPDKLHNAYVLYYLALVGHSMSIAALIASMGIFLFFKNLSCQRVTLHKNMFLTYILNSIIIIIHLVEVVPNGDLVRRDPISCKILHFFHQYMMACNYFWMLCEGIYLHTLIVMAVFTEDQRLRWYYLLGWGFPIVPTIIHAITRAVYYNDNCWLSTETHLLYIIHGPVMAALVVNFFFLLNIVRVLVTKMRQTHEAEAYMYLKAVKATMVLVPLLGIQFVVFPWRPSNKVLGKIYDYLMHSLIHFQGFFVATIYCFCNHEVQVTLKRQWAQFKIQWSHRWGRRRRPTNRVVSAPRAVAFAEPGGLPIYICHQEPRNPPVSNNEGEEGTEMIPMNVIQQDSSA
Procedure, shortened: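 Transfect BHK tk′ts 13 cells transiently with rat calcitonin receptor, culture in DMEM containing 10% FBS, collect cells about 48 hours later, then prepare membranes.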

[2] = molecular target: T2, rat amylin receptor (rat calcitonin receptor + rat RAMP 3) (Rattus norvegicus, UniProt P32214+Q9JJ73); assay: ASSAY (VI) binding to the rat amylin receptor; conditions: for IC50: binding to rat amylin receptor, read-out: rAmylin-R bind IC50
T2 construct: expressed in transfected cells; host or cells: BHK tk'ts 13 (transient, FuGENE 6), membranes
T2 sequence (P32214 25-479 isoform P32214-2 limits assumed): T1 sequence (P32214 25-479 isoform P32214-2 limits assumed)
T2 sequence (Q9JJ73 23-147 partner): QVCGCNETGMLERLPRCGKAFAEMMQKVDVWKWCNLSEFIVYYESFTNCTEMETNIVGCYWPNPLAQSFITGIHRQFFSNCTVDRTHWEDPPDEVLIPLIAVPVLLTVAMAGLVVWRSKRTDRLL
Procedure, shortened: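 Binding to the rat amylin receptor was determined with membrane preparations. The receptor was expressed by transiently transfecting BHK tk′ts 13 cells with rat calcitonin receptor, using FuGENE® 6 (Roche) according to the manufacturer's recommendations. Roughly 48 hours later the cells were harvested and their membranes isolated.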

[3] = Table 7, rat binding selectivity, rCTR IC50 / rAmylin-R IC50
[4] = Table 7a (preferred compounds), rat binding selectivity, rCTR IC50 / rAmylin-R IC50
[5] = ratio of rCTR bind IC50 to rAmylin-R bind IC50

| SMILES | ThT pH 4.0 lag time (h) [1] | IC50 (rat calcitonin receptor) | IC50 ([2]; Table 7) | Ratio rCT/rAmylin binding [2, 3] | Ratio rCT/rAmylin binding [2, 4] | Ratio rCT/rAmylin binding [2, 5] |
| --- | --- | --- | --- | --- | --- | --- |
| CC[C@H](C)[C@H](NC(=O)[C@H](C)NC(=O)CNC(=O)[C@H](Cc1ccccc1)NC(=O)[C@H](CC(N)=O)NC(=O)[C@@H]1CCCN1C(=O)[C@H](CO)NC(=O)[C@H](CO)NC(=O)[C@H](Cc1c[nH]cn1)NC(=O)[C@H](CCCNC(=N)N)NC(=O)[C@H](CC(C)C)NC(=O)[C@H](Cc1ccccc1)NC(=O)[C@H](CC(N)=O)NC(=O)[C@H](C)NC(=O)[C@H](CC(C)C)NC(=O)[C@H](CCCNC(=N)N)NC(=O)[C@H](CCC(N)=O)NC(=O)[C@@H](NC(=O)[C@H](C)NC(=O)[C@@H]1CSSC[C@H](NC(=O)[C@@H](N)CCCCNC(=O)COCCOCCNC(=O)CC[C@H](NC(=O)CCCCCCCCCCCCCCCCCCC(=O)O)C(=O)O)C(=O)N[C@@H](CC(N)=O)C(=O)N[C@@H]([C@@H](C)O)C(=O)N[C@@H](C)C(=O)N[C@@H]([C@@H](C)O)C(=O)N1)[C@@H](C)O)C(=O)N1CCC[C@H]1C(=O)N1CCC[C@H]1C(=O)N[C@@H](CO)C(=O)N[C@H](C(=O)N1CCC[C@H]1C(=O)N[C@H](C(=O)NCC(=O)N[C@@H](CO)C(=O)N[C@@H](CC(N)=O)C(=O)N[C@H](C(=O)N[C@@H](Cc1ccc(O)cc1)C(N)=O)[C@@H](C)O)C(C)C)[C@@H](C)O [Example 53] (H-K([AEEA-γGlu-C20 diacid])CNTATCATQRLANFLRHSSPNFGAIPPSTPVGSNTY-NH2; disulfide 2-7; N-terminus assumed) | 18 h | 10.9 nM | 0.084 nM | 130.1 | 130.1 | 130.1 |
| CC[C@H](C)[C@H](NC(=O)[C@H](C)NC(=O)CNC(=O)[C@H](Cc1ccccc1)NC(=O)[C@H](CC(N)=O)NC(=O)[C@@H]1CCCN1C(=O)[C@H](CO)NC(=O)[C@H](CO)NC(=O)[C@H](Cc1c[nH]cn1)NC(=O)[C@H](CCCNC(=N)N)NC(=O)[C@H](CC(C)C)NC(=O)[C@H](Cc1ccccc1)NC(=O)[C@H](CC(N)=O)NC(=O)[C@H](C)NC(=O)[C@H](CC(C)C)NC(=O)[C@H](CCCNC(=N)N)NC(=O)[C@H](CCC(N)=O)NC(=O)[C@@H](NC(=O)[C@H](C)NC(=O)[C@@H]1CSSC[C@H](NC(=O)[C@@H](N)CCCCNC(=O)COCCOCCNC(=O)CC[C@H](NC(=O)CCCCCCCCCCCCCCCCCCC(=O)O)C(=O)O)C(=O)N[C@@H](CC(N)=O)C(=O)N[C@@H]([C@@H](C)O)C(=O)N[C@@H](C)C(=O)N[C@@H]([C@@H](C)O)C(=O)N1)[C@@H](C)O)C(=O)N1CCC[C@H]1C(=O)N[C@@H](CO)C(=O)N1CCC[C@H]1C(=O)N[C@H](C(=O)N1CCC[C@H]1C(=O)N[C@H](C(=O)NCC(=O)N[C@@H](CO)C(=O)N[C@@H](CC(N)=O)C(=O)N[C@H](C(=O)N[C@@H](Cc1ccc(O)cc1)C(N)=O)[C@@H](C)O)C(C)C)[C@@H](C)O [Example 54] (H-K([AEEA-γGlu-C20 diacid])CNTATCATQRLANFLRHSSPNFGAIPSPTPVGSNTY-NH2; disulfide 2-7; N-terminus assumed) | 15 h | 8.79 nM | 0.049 nM | 179.4 | 179.4 | 179.4 |
| CC[C@H](C)[C@H](NC(=O)[C@H](C)NC(=O)CNC(=O)[C@H](Cc1ccccc1)NC(=O)[C@H](CC(N)=O)NC(=O)[C@@H]1CCCN1C(=O)[C@H](CO)NC(=O)[C@H](CO)NC(=O)[C@H](Cc1c[nH]cn1)NC(=O)[C@H](CCCNC(=N)N)NC(=O)[C@H](CC(C)C)NC(=O)[C@H](Cc1ccccc1)NC(=O)[C@H](CC(N)=O)NC(=O)[C@H](C)NC(=O)[C@H](CC(C)C)NC(=O)[C@H](CCCNC(=N)N)NC(=O)[C@H](CCC(N)=O)NC(=O)[C@@H](NC(=O)[C@H](C)NC(=O)[C@@H]1CSSC[C@H](NC(=O)[C@@H](N)CCCCNC(=O)COCCOCCNC(=O)CC[C@H](NC(=O)CCCCCCCCCCCCCCCCCCC(=O)O)C(=O)O)C(=O)N[C@@H](CC(N)=O)C(=O)N[C@@H]([C@@H](C)O)C(=O)N[C@@H](C)C(=O)N[C@@H]([C@@H](C)O)C(=O)N1)[C@@H](C)O)C(=O)N1CCC[C@H]1C(=O)N1CCC[C@H]1C(=O)N[C@@H](CO)C(=O)N[C@H](C(=O)N[C@@H](CC(N)=O)C(=O)N[C@H](C(=O)NCC(=O)N1CCC[C@H]1C(=O)N[C@@H](CC(N)=O)C(=O)N[C@H](C(=O)N[C@@H](Cc1ccc(O)cc1)C(N)=O)[C@@H](C)O)C(C)C)[C@@H](C)O [Example 55] (H-K([AEEA-γGlu-C20 diacid])CNTATCATQRLANFLRHSSPNFGAIPPSTNVGPNTY-NH2; disulfide 2-7; N-terminus assumed) | 24 h | 6.25 nM | 0.081 nM | 77.2 | 77.2 | 77.2 |
| CC[C@H](C)[C@H](NC(=O)[C@H](C)NC(=O)CNC(=O)[C@H](Cc1ccccc1)NC(=O)[C@H](CC(N)=O)NC(=O)[C@@H]1CCCN1C(=O)[C@H](CO)NC(=O)[C@H](CO)NC(=O)[C@H](Cc1c[nH]cn1)NC(=O)[C@H](CCCNC(=N)N)NC(=O)[C@H](CC(C)C)NC(=O)[C@H](Cc1ccccc1)NC(=O)[C@H](CC(N)=O)NC(=O)[C@H](C)NC(=O)[C@H](CC(C)C)NC(=O)[C@H](CCCNC(=N)N)NC(=O)[C@H](CCC(N)=O)NC(=O)[C@@H](NC(=O)[C@H](C)NC(=O)[C@@H]1CSSC[C@H](NC(=O)[C@@H](N)CCCCNC(=O)COCCOCCNC(=O)CC[C@H](NC(=O)CCCCCCCCCCCCCCCCCCC(=O)O)C(=O)O)C(=O)N[C@@H](CC(N)=O)C(=O)N[C@@H]([C@@H](C)O)C(=O)N[C@@H](C)C(=O)N[C@@H]([C@@H](C)O)C(=O)N1)[C@@H](C)O)C(=O)N1CCC[C@H]1C(=O)N[C@@H](CO)C(=O)N1CCC[C@H]1C(=O)N[C@H](C(=O)N[C@@H](CC(N)=O)C(=O)N[C@H](C(=O)NCC(=O)N1CCC[C@H]1C(=O)N[C@@H](CC(N)=O)C(=O)N[C@H](C(=O)N[C@@H](Cc1ccc(O)cc1)C(N)=O)[C@@H](C)O)C(C)C)[C@@H](C)O [Example 56] (H-K([AEEA-γGlu-C20 diacid])CNTATCATQRLANFLRHSSPNFGAIPSPTNVGPNTY-NH2; disulfide 2-7 (inferred); N-terminus assumed) | 22 h | 5.26 nM | 0.04 nM | 131.4 | 131.4 | 131.4 |
